Measured values: patent US12269816B2, “Benzothiophene compound, preparation method therefor and use thereof” (SICHUAN KELUN-BIOTECH BIOPHARMACEUTICAL CO., LTD., priority 2019, dated 2025)

What was measured:
[1] = tested on: STING and its downstream proteins TBK1 and IRF3 in THP-1 cells; assay: Western blotting of phosphorylation of STING signal pathway proteins in human THP-1 cells; assay type: cell-based; details: 3 hours, protein blotting, FIGS. 1-5, result in words
Source text: In this experiment, the changes in the phosphorylation levels of STING and its downstream proteins TBK1 (TANK-binding kinase 1) and IRF3 (interferon regulatory factor 3) were detected by protein blotting to evaluate the agonistic effect of the test compounds on the STING signal pathway at the cellular level.
The THP-1 cells in the logarithmic phase were centrifuged, and resuspended in a cell culture solution to a density of […]. The cell suspension was inoculated into a 12-well cell culture plate (Corning) at 0.5 mL/well. The compound to be tested was diluted with a cell culture solution to 2× working solution concentration (control compounds 1 and 2: 60 μM; compounds 1 and 3: 0.6 μM, 6 μM, and 60 μM; compounds 2, 4, 6 and 8: 6 μM, 20 μM, and 60 μM). 0.5 mL of the diluted solution of the compound was added into a 12-well plate (500 μl of the culture solution containing 2% DMSO was added into the negative control well), and the plate was incubated in a cell incubator for 3 hours. After the incubation, the cells were collected by centrifugation, lysed with 60 μL cell lysis buffer (CST) for 30 minutes, and centrifuged at 12,000 rpm for 15 minutes. The supernatant was collected to determine the protein concentration, and then an appropriate amount of 5× protein loading buffer was added. The mixture was heated at 95° C. for 10 minutes to prepare a protein electrophoresis sample. Finally protein blotting was performed to detect the phosphorylation level of the corresponding protein. The primary antibodies used in the protein blotting were purchased from CST: STING (D2P2F) rabbit mAb, Phospho-STING (Ser366) rabbit mAb, Phospho-IRF3 (Ser396) (D601M) rabbit mAb, IRF3 (D83B9) rabbit mAb, TBK1/NAK (D1B4) rabbit mAb, Phospho-TBK1/NAK (Ser172) (D52C2) XP® rabbit mAb, and GAPDH (D16H11) rabbit mAb; and the secondary antibody horseradish peroxidase-conjugated goat anti-rabbit IgG (H+L) was purchased from Zsgb-bio.

[2] = tested on: STING-mediated interferon (IFN) signal reporter gene in THP1-Blue™ ISG cells; assay: STING-mediated interferon (IFN) signal SEAP reporter gene assay in THP1-Blue ISG cells; assay type: cell-based, human; details: for EC50: 16 h incubation, SEAP reporter read at OD620nm; for Emax (OD620nm): highest OD620nm value generated by stimulation of the compound, 16 h; for agonistic effect on the STING-mediated Interferon (IFN) signal pathway: result in words
Source text: In this experiment, the activity of the SEAP (secreted embryonic alkaline phosphatase) reporter gene regulated by the IFN regulatory factor (interferon regulatory factor) was detected in the THP1-Blue™ ISG cells (InvivoGen) to evaluate the agonistic effect of the compounds to be tested on the STING-mediated IFN signal pathway at the cellular level.
The THP1-Blue™ ISG cells (InvivoGen) in the logarithmic phase were centrifuged, and resuspended in a cell culture solution to a density of 2×10^6 cells/ml. The cell suspension was inoculated in a 96-well cell culture plate (Corning) at 50 μL/well. The mother liquor of the compound to be tested was gradiently diluted with a cell culture solution to obtain a 2× working concentration diluted solution (control compounds 1 and 2 were diluted at a 3-fold gradient: 200, 66.67, 22.22, 7.41, 2.47, 0.82, 0.27 and 0 μM; compounds 1, 2, 4, 6, 8, and 23 were diluted at a 8-fold gradient: 60, 7.5, 0.94, 0.12, 0.015, 0.0018, 0.00023 and 0 μM; and compounds 3 and 5 were diluted at a 10-fold gradient: 10, 1, 0.1, 0.01, 0.001, 0.0001, 0.00001 and 0 μM). The 2× working concentration diluted solution of the compound was added into a 96-well plate (50 μl of the culture solution containing 2% DMSO was added into the negative control well) at 50 μL/well. The culture plate was then placed in a cell incubator, and incubated for 16 h. After the cell incubation, 10 μL of the cell culture supernatant was transferred to a 96-well plate, and a QUANTI-Blue (InvivoGen) solution was added at 90 μL/well. The cells were incubated at 37° C. for 3 h. The absorbance at 620 nm (OD620nm) was read with a microplate reader.
In the table, EC50 refers to the concentration of a compound when ODM620nm value generated by stimulation of the compound reaches half of Emax; and Emax refers to the highest OD620nm value generated by stimulation of the compound.

[3] = tested on: STING pathway cytokine hIFN-β in human THP-1 cells; assay: ELISA of STING pathway cytokine hIFN-β expression in human THP-1 cells; assay type: cell-based; details: 8 hours, ELISA; for EC50: hIFN-β expression; for Emax: highest expression of hIFN-β
Source text: In this experiment, the expression of STING signal pathway cytokine hIFN-β was detected in THP1 cells (Nanjing Cobioer) by the ELISA method, so as to evaluate the agonistic effect of the compounds to be tested on the expression of STING pathway cytokine hIFN-β at the cellular level.
THP1 cells (Nanjing Cobioer) in the logarithmic phase were centrifuged, and resuspended in a cell culture solution to a density of 8×10^6 cells/ml. The cell suspension was inoculated into a 24-well cell culture plate (Corning) at 250 μL/well.
The mother liquor of the compound to be tested was diluted with a cell culture solution to obtain a 2× working concentration diluted solution (control compounds 1 and 2 were diluted at a 2-fold gradient: 200, 100, 50, 25, 12.5, 6.25, 3.125, 1.5625 and 0 μM; and compounds 4, 6, and 8 were diluted at a 3-fold gradient: 200, 66.67, 22.22, 7.41, 2.47, 0.82, 0.27, 0.091 and 0 μM). The 2× working concentration diluted solution of the compound was added into 24-well plate (250 μl of the culture solution containing 2% DMSO was added into the negative control well) at 250 μL/well. The culture plate was placed in a cell culture incubator, and incubated for 8 hours. After the cell incubation, the supernatant was collected by centrifugation at 300 g×5 min, and the hIFN-β content (pg/ml) in the cell culture supernatant was detected according to the operating instructions of the VeriKine Human […] ELISA kit from PBL (obtained by conversion of the […] absorbance-hIFN-β standard concentration standard curve and the OD450 nm absorbance value read by the microplate reader). […] was calculated through log(agonist) vs. response—Variable slope fitting by the Graphpad Prism software, and the experimental results are shown in Table 2.
In the table, EC50 refers to the concentration of a compound when the expression of hIFN-β generated by stimulation of the compound reaches half of Emax and Emax refers to the highest expression of hIFN-β generated by stimulation of the compound.

[4] = tested on: STING pathway cytokine mIFN-β in mouse Raw264.7 cells; assay: ELISA of STING pathway cytokine mIFN-β expression in mouse Raw264.7 cells; assay type: cell-based; details: 6 h, ELISA; for Emax: highest expression of mIFN-β; for EC50: mIFN-β expression
Source text: In this experiment, the expression of STING signal pathway cytokine mIFN-β was detected in Raw264.7 cells (Nanjing Cobioer) by the ELISA method, so as to evaluate the agonistic effect of the compound to be tested on the expression of STING pathway cytokine mIFN-β at the cellular level.
Raw264.7 cells (Nanjing Cobioer) in the logarithmic phase were centrifuged, and resuspended in a cell culture solution to a density of 1.6×10^6 cells/ml. The cell suspension was inoculated into a 24-well cell culture plate (Corning) at 250 μL/well. The mother liquor of the compound to be tested was gradiently diluted with a cell culture solution to obtain a 2× working concentration diluted solution (control compound 1 was diluted at a 3-fold gradient: 200, 66.67, 22.22, 7.41, 2.47, 0.82, 0.27 and 0 μM; control compound 2 was diluted at a 2-fold gradient: 200, 100, 50, 25, 12.5, 6.25, 3.125 and 0 μM; and compounds 4, 6 and 8 were diluted at a 4-fold gradient: 200, 50, 12.5, 3.13, 0.78, 0.20, 0.049 and 0 μM). The 2× working concentration diluted solution of the compound was added into a 24-well plate (250 μl of the culture solution containing 2% DMSO was added into the negative control well) at 250 μL/well. The culture plate was then placed in a cell incubator, and incubated for 6 h. After the cell incubation, the supernatant was collected by centrifugation at 300 g×5 min, and the mIFN-β content (pg/ml) in the cell culture supernatant was detected according to the operating instructions of the VeriKinem Mouse IFN Beta ELISA Kit from PBL (obtained by conversion of the OD450 nm absorbance-mIFN-β standard concentration standard curve and the OD450 nm absorbance value read by the microplate reader). EC50 was calculated through log(agonist) vs. response—Variable slope fitting by the Graphpad Prism software, and the experimental results are shown in Table 3.
In the table, EC50 refers to the concentration of a compound when the expression of mIFN-β generated by stimulation of the compound reaches half of Emax; and Emax refers to the highest expression of mIFN-β generated by stimulation of the compound.

hSTING protein = target: T1, hSTING protein (Homo sapiens, UniProt Q86WV6); assay: Human STING binding kit (HTRF) competitive binding assay
T1 construct: purchased Cisbio
Source text: In this experiment, the capability of the compound and the specific ligand (d2-STING-ligand) in a Human STING binding kit from Cisbio for competitively binding to the 6×His-hSTING protein was detected using the Human STING binding kit (HTRF method), so as to evaluate the binding affinity between the compound to be tested and the hSTING protein.
The compound was gradiently diluted with a dilution buffer in the Human STING binding kit (the diluent buffer reagent) to obtain a 4× working concentration diluted solution. […] The 6×His-hSTING protein (50× in the mother liquor) was diluted to 1× with the detection buffer in the Human STING binding kit (the detection buffer reagent). 5 μl of the diluted solution was added into the corresponding wells of a 384-well plate, and the well with no protein and no compound was set as a negative control well (min), while the well with the protein and no compound was set as a positive control well (max). The d2-STING-ligand and Tb^3+-anti-6×His-antibody (both 50× in the mother liquor) were diluted to 1× with the detection buffer in the Human STING binding kit (the detection buffer reagent), and mixed uniformly at a ratio of 1:1. 10 μl of the mixed solution was added to the corresponding wells of a 384-well plate. The plate was sealed and incubated at room temperature (25° C.) for 3 h. A BMG microplate reader was used to read HTRF, and the ratio was calculated according to the following formula: Ratio=signal665nm/signal620nm×10000. […] IC50 was calculated through log(inhibitor) vs. response—Variable slope fitting by the Graphpad Prism software.

T1 sequence (Q86WV6 whole entry H232R): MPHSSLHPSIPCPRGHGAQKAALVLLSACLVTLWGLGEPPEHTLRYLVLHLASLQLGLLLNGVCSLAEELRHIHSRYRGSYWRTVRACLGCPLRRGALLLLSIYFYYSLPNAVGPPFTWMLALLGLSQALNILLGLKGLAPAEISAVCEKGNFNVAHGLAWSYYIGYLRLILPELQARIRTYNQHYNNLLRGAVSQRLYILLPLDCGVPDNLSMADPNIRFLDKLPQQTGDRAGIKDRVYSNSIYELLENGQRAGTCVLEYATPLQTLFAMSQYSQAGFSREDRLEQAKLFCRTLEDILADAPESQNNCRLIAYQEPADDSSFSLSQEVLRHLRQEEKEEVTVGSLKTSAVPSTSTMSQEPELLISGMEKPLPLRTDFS

| SMILES | agonistic effect on the phosphorylation levels of STING, TBK1 and IRF3 [1] | EC50 ([2]; Homo sapiens) [µM] | Emax (OD620nm) [2] [OD620nm] | agonistic effect on the STING-mediated Interferon (IFN) signal pathway [2] | EC50 [2] [µM] | EC50 [3] [µM] | Emax [3] [pg/mL] | Emax [4] [pg/mL] | EC50 [4] [µM] | Ki (hSTING protein; calculated as Ki=1/2*IC50 per kit instructions) [µM] | IC50 (hSTING protein; competition with d2-STING-ligand for 6×His-hSTING, HTRF, 3 h at 25° C.) [µM] |
| --- | --- | --- | --- | --- | --- | --- | --- | --- | --- | --- | --- |
| CCOC(=O)CCC(=O)c1cc2cc(OC)c(OCCCOc3cc4sc(C(=O)N(C)CCC(=O)OCC)cc4cc3OC)cc2s1 [Compound 1, ethyl 4-(6-(3-((2-((3-ethoxy-3-oxopropyl)(methyl)carbamoyl)-5-methoxybenzo[b]thiophen-6-yl)oxy)propoxy)-5-methoxybenzo[b]thiophen-2-yl)-4-oxobutyrate] | strong agonistic effects | 0.00057 | 1.54 | strong agonistic effects | – | – | – | – | – | – | – |
| CCOC(=O)CCC(=O)c1cc2cc(OC)c(OCCCOc3cc4cc(C(=O)N(C)CCC(=O)OCC)sc4cc3OC)cc2s1 [Compound 3] | strong agonistic effects | – | 1.92 | strong agonistic effects | 0.00358 | – | – | – | – | – | – |
| CCOC(=O)CCC(=O)c1cc2cc(OCCCOc3cc4sc(C(=O)N(C)CCC(=O)OCC)cc4cc3OC)c(OC)cc2s1 [Compound 5, ethyl 4-(5-(3-((2-((3-ethoxy-3-oxopropyl)(methyl)carbamoyl)-5-methoxybenzo[b]thiophen-6-yl)oxy)propoxy)-6-methoxybenzo[b]thiophen-2-yl)-4-oxobutyrate] | – | 0.0014 | 1.94 | strong agonistic effects | – | – | – | – | – | – | – |
| CCOC(=O)CCC(=O)c1cc2cc(OCCCOc3cc4cc(C(=O)N(C)CCCOC)sc4cc3OC)c(OC)cc2s1 [Compound 23, ethyl 4-(6-methoxy-5-(3-((6-methoxy-2-((3-methoxypropyl)(methyl)carbamoyl)benzo[b]thiophen-5-yl)oxy)propoxy)benzo[b]thiophen-2-yl)-4-oxobutyrate] | – | 0.974 | 1.74 | strong agonistic effects | – | – | – | – | – | – | – |
| Nc1ncnc2c1ncn2[C@@H]1O[C@@H]2COP(=O)([S-])O[C@@H]3[C@H](O)[C@@H](COP([O-])(=S)O[C@H]2[C@H]1O)O[C@H]3n1cnc2c(N)ncnc21.[Na+].[Na+] (stereo partly shown) [Control Compound 1, ADU-S100, reference compound] | – | – | 2.03 | – | 3.88 | 14 | 1476.6 | 1248.94 | 2.74 | – | – |
| COc1cc2cc(C(=O)CCC(=O)O)sc2cc1OC [Control Compound 2, reference compound] | – | 4.95 | 1.49 | – | – | 16.8 | 1373.9 | 1106.15 | 24.6 | 1.89 | 3.78 |
